{
  "source": "patent US11564912B2",
  "about": "“Methods for treating irritable bowel syndrome (IBS)” (Salix Pharmaceuticals, Inc., priority 2008, dated 2023)",
  "type_in_all_cases": "in vivo, human",
  "key": {"[1]": {"system": "subjects with IBS", "experiment": "Combined analysis of the two studies of rifaximin 550 mg TID", "text": "(§1) A measure of efficacy is based on subjects' answers to the Weekly Subject Global Assessment (SGA) questions over the study duration in relation to their IBS symptoms."}, "[2]": {"system": "subjects with dIBS", "experiment": "Study of rifaximin BID in subjects with dIBS: adequate relief of IBS symptoms and bloating", "conditions": "rifaximin 550 mg BID 14 days, patients with dIBS"}, "[3]": {"system": "subjects with IBS", "experiment": "Combined analysis of the two studies of rifaximin 550 mg TID", "remark": "listed apart in the source"}, "[4]": {"system": "subjects with IBS", "experiment": "Study 1 of rifaximin 550 mg TID for 14 days, analysis after 3 months", "text": "as §1"}, "[5]": {"system": "patients with nonconstipation irritable bowel syndrome (non-C IBS)", "experiment": "Trial of rifaximin 550 mg TID for 14 days with 10-week follow-up (Example 5; Study 2 of Example 6)", "text": "A measure of efficacy is based on subjects' answers to the Weekly Subject Global Assessment (SGA) questions over the 4 week study duration in relation to their IBS symptoms. […] Another measure of efficacy is based on subjects' answers to the Weekly Subject Global Assessment (SGA) question over the 4 week study duration in relation to their IBS symptom of bloating. The SGA question is asked weekly as follows: “In the past 7 days, have you had adequate relief of your IBS symptom of bloating?” (Yes/No). […] Other measures of efficacy include the changes in dIBS symptoms from baseline to each week of the 4 weeks in the study (e.g., abdominal pain and discomfort, bloating, number of stools per day, stool consistency, urgency with loose or watery stools).\nThe primary efficacy endpoint of the study was the proportion of subjects who achieve adequate relief of IBS symptoms for at least 2 weeks during 10 the first 4 weeks of the 10-week follow-up phase.\nTwo measures of efficacy were assessed.\nSubjects were questioned on the relief of overall IBS symptoms and bloating. […] The analyses defined success as a “yes” response to questions regarding adequate relief.\nAssessment (SGA) questions over the 4 week study duration in relation to their IBS symptoms. […] Another measure of efficacy is based on subjects' answers to the Weekly Subject Global Assessment (SGA) question over the 4 week study duration in relation to their IBS symptom of bloating. The SGA question is asked weekly as follows: “In the past 7 days, have you had adequate relief of your IBS symptom of bloating'?” (Yes/No).\nAll subpopulations in the study responded to therapy. Baseline severity was determined during screening for Abdominal Pain/Discomfort and Bloating, and the number, type (normal, hard, loose) and urgency of bowel movements. Duration of effect was assessed in a ten week follow-up period.\nas §1"}, "[6]": {"conditions": "weekly mean vs baseline for at least 2 weeks during PEP"}, "[7]": {"conditions": "<2 for at least 50% of days in a week for at least 2 weeks during PEP"}, "[8]": {"conditions": "at least 2 out of 4 weeks adequate relief during weeks 3 through 6 (weekly question)"}, "[9]": {"conditions": "weekly median vs baseline for at least 2 weeks during PEP"}, "[10]": {"conditions": "Age Group: <65, Rifaximin 550 mg TID (N = 281)"}, "[11]": {"conditions": "Age Group: >=65, Rifaximin 550 mg TID"}, "[12]": {"conditions": "Gender: Female, Rifaximin 550 mg TID (N = 226)"}, "[13]": {"conditions": "Gender: Male, Rifaximin 550 mg TID (N = 85)"}, "[14]": {"conditions": "IBS Subtype: Alternating-predominant, Rifaximin 550 mg TID"}, "[15]": {"conditions": "IBS Subtype: Diarrhoea-predominant, Rifaximin 550 mg TID"}},
  "data": [
    {"substance": "(2S,16Z,18E,20S,21S,22R, 23R,24R,25S,26S,27S,28E)-5,6,21,23,25 Pentahydroxy-27-methoxy -2,4,11,16,20,22,24,26-octamethyl-2,7-(epoxypentadeca-(1,11,13)trienimino)benzofuro (4,5-e) pyrido(1,2,-a) benzimidazole-1,15(2H)-dione,25-acetate [Rifaximin]", "values": [
      {"measurement": "Abdominal Pain reduction of 2 point in mean, responders", "setting": "[1]; at least 2 weeks during PEP", "value": 25, "unit": "%"},
      {"measurement": "Overall reduction of mean weekly abdominal pain by >=25%, responders", "setting": "[1]; at least 2 weeks during PEP", "value": 57, "unit": "%"},
      {"measurement": "Overall reduction of mean weekly abdominal pain by >=50%, responders", "setting": "[1]; at least 2 weeks during PEP", "value": 35, "unit": "%"},
      {"measurement": "Overall reduction of mean weekly abdominal pain by >=75%, responders", "setting": "[1]; at least 2 weeks during PEP", "value": 14, "unit": "%"},
      {"measurement": "Overall reduction of median weekly abdominal pain by >=25%, responders", "setting": "[1]; at least 2 weeks during PEP", "value": 62, "unit": "%"},
      {"measurement": "Overall reduction of median weekly abdominal pain by >=50%, responders", "setting": "[1]; at least 2 weeks during PEP", "value": 44, "unit": "%"},
      {"measurement": "Overall reduction of median weekly abdominal pain by >=75%, responders", "setting": "[1]; at least 2 weeks during PEP", "value": 21, "unit": "%"},
      {"measurement": "Abdominal pain reduction of 1 point in mean, responders", "setting": "[1]; [6]", "value": 52, "unit": "%"},
      {"measurement": "Tolerability, incidence of adverse events compared with placebo", "setting": "[2]", "value": "well tolerated"},
      {"measurement": "Daily abdominal pain <2, responders", "setting": "[3]; [7]", "value": 39, "unit": "%"},
      {"measurement": "Global IBS symptoms, responders", "setting": "[3]; [8]", "value": 41, "unit": "%"},
      {"measurement": "IBS symptom of Bloating, responders", "setting": "[3]; [8]", "value": 40, "unit": "%"},
      {"measurement": "Abdominal Pain reduction of 2 point in median, responders", "setting": "[3]; at least 2 weeks during PEP", "value": 39, "unit": "%"},
      {"measurement": "Abdominal Pain reduction of 3 point in mean, responders", "setting": "[3]; at least 2 weeks during PEP", "value": 6, "unit": "% vs 7%"},
      {"measurement": "Abdominal Pain reduction of 3 point in median, responders", "setting": "[3]; at least 2 weeks during PEP", "value": 21, "unit": "%"},
      {"measurement": "Abdominal pain reduction of 1 point in median, responders", "setting": "[3]; [9]", "value": 63, "unit": "%"},
      {"measurement": "Daily abdominal pain <2, responders", "setting": "[4]; [7]", "value": 40, "unit": "%"},
      {"measurement": "Global IBS symptoms, responders", "setting": "[4]; [8]", "value": 41, "unit": "%"},
      {"measurement": "IBS symptom of Bloating, responders", "setting": "[4]; [8]", "value": 40, "unit": "%"},
      {"measurement": "Abdominal Pain reduction of 2 point in mean, responders", "setting": "[4]; at least 2 weeks during PEP", "value": 26, "unit": "%"},
      {"measurement": "Abdominal Pain reduction of 2 point in median, responders", "setting": "[4]; at least 2 weeks during PEP", "value": 37, "unit": "%"},
      {"measurement": "Abdominal Pain reduction of 3 point in mean, responders", "setting": "[4]; at least 2 weeks during PEP", "value": 6, "unit": "% vs 7%"},
      {"measurement": "Abdominal Pain reduction of 3 point in median, responders", "setting": "[4]; at least 2 weeks during PEP", "value": 22, "unit": "%"},
      {"measurement": "Overall reduction of mean weekly abdominal pain by >=25%, responders", "setting": "[4]; at least 2 weeks during PEP", "value": 56, "unit": "%"},
      {"measurement": "Overall reduction of mean weekly abdominal pain by >=50%, responders", "setting": "[4]; at least 2 weeks during PEP", "value": 36, "unit": "%"},
      {"measurement": "Overall reduction of mean weekly abdominal pain by >=75%, responders", "setting": "[4]; at least 2 weeks during PEP", "value": 14, "unit": "%"},
      {"measurement": "Overall reduction of median weekly abdominal pain by >=25%, responders", "setting": "[4]; at least 2 weeks during PEP", "value": 63, "unit": "%"},
      {"measurement": "Overall reduction of median weekly abdominal pain by >=50%, responders", "setting": "[4]; at least 2 weeks during PEP", "value": 44, "unit": "%"},
      {"measurement": "Overall reduction of median weekly abdominal pain by >=75%, responders", "setting": "[4]; at least 2 weeks during PEP", "value": 23, "unit": "%"},
      {"measurement": "Abdominal pain reduction of 1 point in mean, responders", "setting": "[4]; [6]", "value": 52, "unit": "%"},
      {"measurement": "Abdominal pain reduction of 1 point in median, responders", "setting": "[4]; [9]", "value": 63, "unit": "%"},
      {"measurement": "Adequate relief of IBS related symptoms (SGA) and IBS-related bloating (IBS-B)", "setting": "[5]; 550 mg TID for 2 weeks", "value": "statistically significant relief"},
      {"measurement": "Adequate Relief of IBS symptom of Bloating: Failure", "setting": "[5]; [10]", "value": "171 (60.9%) N (%)"},
      {"measurement": "Adequate Relief of IBS symptom of Bloating: Success", "setting": "[5]; [10]", "value": "110 (39.1%) N (%)"},
      {"measurement": "Adequate Relief of IBS symptoms: Failure", "setting": "[5]; [10]", "value": "171 (60.9%) N (%)"},
      {"measurement": "Adequate Relief of IBS symptoms: Success", "setting": "[5]; [10]", "value": "110 (39.1%) N (%)"},
      {"measurement": "Adequate Relief of IBS symptom of Bloating: Failure", "setting": "[5]; [11]", "value": "16 (53.3%) N (%)"},
      {"measurement": "Adequate Relief of IBS symptom of Bloating: Success", "setting": "[5]; [11]", "value": "14 (46.7%) N (%)"},
      {"measurement": "Adequate Relief of IBS symptoms: Failure", "setting": "[5]; [11]", "value": "16 (53.3%) N (%)"},
      {"measurement": "Adequate Relief of IBS symptoms: Success", "setting": "[5]; [11]", "value": "14 (46.7%) N (%)"},
      {"measurement": "Adequate Relief of IBS symptom of Bloating: Failure", "setting": "[5]; [12]", "value": "128 (56.6%) N (%)"},
      {"measurement": "Adequate Relief of IBS symptom of Bloating: Success", "setting": "[5]; [12]", "value": "98 (43.4%) N (%)"},
      {"measurement": "Adequate Relief of IBS symptoms: Failure", "setting": "[5]; [12]", "value": "130 (57.5%) N (%)"},
      {"measurement": "Adequate Relief of IBS symptoms: Success", "setting": "[5]; [12]", "value": "96 (42.5%) N (%)"},
      {"measurement": "Adequate Relief of IBS symptom of Bloating: Failure", "setting": "[5]; [13]", "value": "59 (69.4%) N (%)"},
      {"measurement": "Adequate Relief of IBS symptom of Bloating: Success", "setting": "[5]; [13]", "value": "26 (30.6%) N (%)"},
      {"measurement": "Adequate Relief of IBS symptoms: Failure", "setting": "[5]; [13]", "value": "57 (67.1%) N (%)"},
      {"measurement": "Adequate Relief of IBS symptoms: Success", "setting": "[5]; [13]", "value": "28 (32.9%) N (%)"},
      {"measurement": "Adequate Relief of IBS symptom of Bloating: Failure", "setting": "[5]; [14]", "value": "19 (55.9%) N (%)"},
      {"measurement": "Adequate Relief of IBS symptom of Bloating: Success", "setting": "[5]; [14]", "value": "15 (44.1%) N (%)"},
      {"measurement": "Adequate Relief of IBS symptoms: Failure", "setting": "[5]; [14]", "value": "21 (61.8%) N (%)"},
      {"measurement": "Adequate Relief of IBS symptoms: Success", "setting": "[5]; [14]", "value": "13 (38.2%) N (%)"},
      {"measurement": "Adequate Relief of IBS symptom of Bloating: Failure", "setting": "[5]; [15]", "value": "168 (60.6%) N (%)"},
      {"measurement": "Adequate Relief of IBS symptom of Bloating: Success", "setting": "[5]; [15]", "value": "109 (39.4%) N (%)"}
    ]}
  ]
}
